Test results taken from US20250114345A1, “COMPOUNDS AND COMPOSITIONS AS CBP/P300 DEGRADERS AND USES THEREOF” (Oncopia Therapeutics, Inc. d/b/a/ SK Life Science Labs, priority 2023, published 2025).

Columns and labels:
[1] = molecular target: T1, p300 (Homo sapiens, UniProt Q09472); experiment: P300 degradation, HiBit technology in A549 P300 HiBit cells (2 h); assay type: cell-based; conditions: 2 hrs post treatment; for Dmax: A549, A549 P300 HiBit cells; for DC50: A549 P300 HiBit cells
T1 construct: host or cells: A549 P300 HiBit cells
T1 sequence (Q09472 whole entry): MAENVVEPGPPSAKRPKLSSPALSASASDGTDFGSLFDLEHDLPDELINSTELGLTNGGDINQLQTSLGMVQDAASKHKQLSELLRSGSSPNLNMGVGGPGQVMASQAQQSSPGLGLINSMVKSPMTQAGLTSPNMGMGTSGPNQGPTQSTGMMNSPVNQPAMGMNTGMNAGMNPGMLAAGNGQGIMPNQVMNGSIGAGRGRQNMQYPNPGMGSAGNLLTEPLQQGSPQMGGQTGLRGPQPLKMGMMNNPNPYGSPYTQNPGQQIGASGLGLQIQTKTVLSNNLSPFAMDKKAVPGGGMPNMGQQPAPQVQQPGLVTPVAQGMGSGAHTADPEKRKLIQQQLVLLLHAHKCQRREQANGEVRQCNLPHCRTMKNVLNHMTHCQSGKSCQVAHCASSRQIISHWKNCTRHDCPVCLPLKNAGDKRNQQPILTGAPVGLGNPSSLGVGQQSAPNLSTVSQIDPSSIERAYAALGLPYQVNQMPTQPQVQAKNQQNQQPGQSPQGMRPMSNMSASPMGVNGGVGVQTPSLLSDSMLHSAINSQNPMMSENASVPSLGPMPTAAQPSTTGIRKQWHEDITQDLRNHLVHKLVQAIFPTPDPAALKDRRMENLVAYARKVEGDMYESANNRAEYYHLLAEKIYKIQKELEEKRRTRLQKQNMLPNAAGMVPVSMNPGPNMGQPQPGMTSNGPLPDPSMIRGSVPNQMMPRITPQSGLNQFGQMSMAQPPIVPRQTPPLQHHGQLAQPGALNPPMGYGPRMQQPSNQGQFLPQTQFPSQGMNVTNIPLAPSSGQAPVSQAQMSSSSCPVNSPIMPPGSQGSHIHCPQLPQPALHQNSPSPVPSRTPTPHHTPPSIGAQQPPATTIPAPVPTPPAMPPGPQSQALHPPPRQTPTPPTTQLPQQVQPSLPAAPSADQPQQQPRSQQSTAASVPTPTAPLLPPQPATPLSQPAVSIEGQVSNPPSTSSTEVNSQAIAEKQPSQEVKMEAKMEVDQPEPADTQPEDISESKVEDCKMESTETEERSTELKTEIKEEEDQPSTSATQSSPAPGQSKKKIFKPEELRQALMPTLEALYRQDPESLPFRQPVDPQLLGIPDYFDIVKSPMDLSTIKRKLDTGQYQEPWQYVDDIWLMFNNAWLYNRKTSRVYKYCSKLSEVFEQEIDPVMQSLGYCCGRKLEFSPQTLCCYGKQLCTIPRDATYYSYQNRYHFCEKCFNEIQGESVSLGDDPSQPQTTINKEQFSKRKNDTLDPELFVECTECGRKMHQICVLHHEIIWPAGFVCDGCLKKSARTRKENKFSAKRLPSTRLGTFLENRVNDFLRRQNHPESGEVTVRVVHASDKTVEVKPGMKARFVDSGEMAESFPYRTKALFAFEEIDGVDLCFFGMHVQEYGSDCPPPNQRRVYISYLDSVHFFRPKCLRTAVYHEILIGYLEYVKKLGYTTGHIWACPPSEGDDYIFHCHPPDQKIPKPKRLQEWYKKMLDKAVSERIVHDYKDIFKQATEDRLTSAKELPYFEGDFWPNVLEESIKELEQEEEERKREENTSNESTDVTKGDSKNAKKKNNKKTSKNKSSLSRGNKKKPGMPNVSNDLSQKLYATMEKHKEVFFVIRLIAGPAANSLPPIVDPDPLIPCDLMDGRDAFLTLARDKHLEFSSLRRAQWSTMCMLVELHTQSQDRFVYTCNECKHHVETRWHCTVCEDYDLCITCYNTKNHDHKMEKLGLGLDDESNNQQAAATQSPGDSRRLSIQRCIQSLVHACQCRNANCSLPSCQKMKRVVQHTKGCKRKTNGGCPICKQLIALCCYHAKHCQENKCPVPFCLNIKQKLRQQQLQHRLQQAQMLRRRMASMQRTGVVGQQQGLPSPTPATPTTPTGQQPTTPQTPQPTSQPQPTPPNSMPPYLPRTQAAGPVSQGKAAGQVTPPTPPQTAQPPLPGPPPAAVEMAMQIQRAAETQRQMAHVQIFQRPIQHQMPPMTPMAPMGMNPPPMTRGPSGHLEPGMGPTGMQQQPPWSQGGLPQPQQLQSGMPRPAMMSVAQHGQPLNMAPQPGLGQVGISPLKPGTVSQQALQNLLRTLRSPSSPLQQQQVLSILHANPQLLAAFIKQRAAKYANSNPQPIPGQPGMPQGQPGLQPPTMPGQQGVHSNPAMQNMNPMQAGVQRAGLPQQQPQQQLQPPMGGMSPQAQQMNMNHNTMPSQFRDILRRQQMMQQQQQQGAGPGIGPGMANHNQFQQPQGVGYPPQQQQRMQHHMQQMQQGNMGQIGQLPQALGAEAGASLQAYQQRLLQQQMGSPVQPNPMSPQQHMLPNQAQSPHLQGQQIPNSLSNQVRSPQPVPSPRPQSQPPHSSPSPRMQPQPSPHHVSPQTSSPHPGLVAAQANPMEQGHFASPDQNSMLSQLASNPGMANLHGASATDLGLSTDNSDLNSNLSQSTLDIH
Method in brief: (§1)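 Cells: A549 HiBiT-tagged lines, 0.2×10^4/well, F-12K + 10% HI-FBS, equilibrated overnight. Tx: serial dilution of cpd (10 mM DMSO stock). Readout: HiBiT lytic reagent, 10 min RT shaking, luminescence → potency, Dmax.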

[2] = molecular target: T2, CBP (Homo sapiens, UniProt Q92793); experiment: CBP degradation, HiBit technology in A549 CBP HiBit cells (24 h); assay type: cell-based; conditions: 24 hrs post treatment
T2 construct: host or cells: A549 CBP HiBit cells
T2 sequence (Q92793 whole entry): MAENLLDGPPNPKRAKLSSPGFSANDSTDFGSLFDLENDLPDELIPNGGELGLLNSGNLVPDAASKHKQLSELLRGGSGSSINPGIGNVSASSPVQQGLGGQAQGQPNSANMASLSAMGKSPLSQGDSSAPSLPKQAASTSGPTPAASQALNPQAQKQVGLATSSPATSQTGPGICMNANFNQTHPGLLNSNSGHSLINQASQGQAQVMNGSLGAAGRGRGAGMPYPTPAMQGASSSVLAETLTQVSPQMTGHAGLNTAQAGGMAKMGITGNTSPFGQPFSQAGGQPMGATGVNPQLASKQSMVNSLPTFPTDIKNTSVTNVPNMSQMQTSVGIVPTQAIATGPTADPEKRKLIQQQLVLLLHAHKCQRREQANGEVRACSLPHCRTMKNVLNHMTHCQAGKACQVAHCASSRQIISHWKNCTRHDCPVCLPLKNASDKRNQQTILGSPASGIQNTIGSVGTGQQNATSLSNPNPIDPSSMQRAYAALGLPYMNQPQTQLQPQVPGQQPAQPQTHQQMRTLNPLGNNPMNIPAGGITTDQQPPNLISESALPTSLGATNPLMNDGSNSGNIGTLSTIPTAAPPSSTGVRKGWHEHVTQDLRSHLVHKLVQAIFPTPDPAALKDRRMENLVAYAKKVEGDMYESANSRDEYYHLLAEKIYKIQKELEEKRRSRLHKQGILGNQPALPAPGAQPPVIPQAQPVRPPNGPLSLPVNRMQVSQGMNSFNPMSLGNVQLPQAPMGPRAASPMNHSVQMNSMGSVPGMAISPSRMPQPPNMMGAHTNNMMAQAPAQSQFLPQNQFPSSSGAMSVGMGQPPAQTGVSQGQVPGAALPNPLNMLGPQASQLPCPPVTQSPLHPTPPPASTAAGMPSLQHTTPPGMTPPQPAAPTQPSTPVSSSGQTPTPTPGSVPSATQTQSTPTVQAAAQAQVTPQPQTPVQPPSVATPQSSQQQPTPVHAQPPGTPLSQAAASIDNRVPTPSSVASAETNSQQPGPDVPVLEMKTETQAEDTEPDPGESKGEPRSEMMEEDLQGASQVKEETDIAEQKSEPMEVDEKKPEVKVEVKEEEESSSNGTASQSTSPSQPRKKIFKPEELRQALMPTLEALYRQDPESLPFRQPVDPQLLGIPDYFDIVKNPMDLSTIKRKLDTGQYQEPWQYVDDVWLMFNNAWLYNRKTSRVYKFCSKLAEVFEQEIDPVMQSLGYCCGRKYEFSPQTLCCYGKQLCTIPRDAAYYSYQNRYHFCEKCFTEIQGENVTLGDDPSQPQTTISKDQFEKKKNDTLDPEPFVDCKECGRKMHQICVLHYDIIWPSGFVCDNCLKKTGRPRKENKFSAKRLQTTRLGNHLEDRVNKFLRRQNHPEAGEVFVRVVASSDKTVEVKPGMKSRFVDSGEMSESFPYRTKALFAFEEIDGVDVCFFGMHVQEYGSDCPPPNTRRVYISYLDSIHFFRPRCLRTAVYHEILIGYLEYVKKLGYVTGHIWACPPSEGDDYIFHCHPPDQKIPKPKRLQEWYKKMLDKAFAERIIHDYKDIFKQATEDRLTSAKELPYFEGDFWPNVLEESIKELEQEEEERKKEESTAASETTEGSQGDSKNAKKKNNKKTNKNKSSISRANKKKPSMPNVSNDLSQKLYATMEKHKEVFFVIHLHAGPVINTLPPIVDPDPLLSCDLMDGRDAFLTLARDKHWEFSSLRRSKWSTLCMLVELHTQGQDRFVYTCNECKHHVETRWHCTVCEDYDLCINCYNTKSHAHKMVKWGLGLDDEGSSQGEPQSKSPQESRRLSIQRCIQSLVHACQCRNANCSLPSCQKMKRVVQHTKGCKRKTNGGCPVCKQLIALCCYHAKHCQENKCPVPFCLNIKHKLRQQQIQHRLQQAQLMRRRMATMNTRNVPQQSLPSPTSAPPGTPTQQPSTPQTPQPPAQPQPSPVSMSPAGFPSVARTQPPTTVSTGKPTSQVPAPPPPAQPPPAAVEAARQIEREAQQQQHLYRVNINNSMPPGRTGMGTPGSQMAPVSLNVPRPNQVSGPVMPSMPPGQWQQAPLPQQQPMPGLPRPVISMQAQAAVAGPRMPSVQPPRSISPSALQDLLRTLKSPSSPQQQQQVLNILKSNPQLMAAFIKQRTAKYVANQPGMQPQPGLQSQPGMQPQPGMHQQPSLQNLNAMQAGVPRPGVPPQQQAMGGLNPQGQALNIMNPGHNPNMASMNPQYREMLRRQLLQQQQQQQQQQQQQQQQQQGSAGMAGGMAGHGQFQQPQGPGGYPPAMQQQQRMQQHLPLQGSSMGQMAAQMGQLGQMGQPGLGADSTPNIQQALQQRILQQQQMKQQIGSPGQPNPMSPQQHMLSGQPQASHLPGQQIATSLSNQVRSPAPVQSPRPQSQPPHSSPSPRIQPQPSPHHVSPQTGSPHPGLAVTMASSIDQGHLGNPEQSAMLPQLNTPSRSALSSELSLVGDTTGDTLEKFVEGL
Method in brief: as §1

Compound: Cc1cc2c(N3CCCc4cc(-c5ccc(C(=O)NCC#Cc6cc7c(C8CCC(=O)NC8=O)cccc7o6)nc5)ncc43)cc(C3CCOCC3)nc2n(C)c1=O (centres unmarked) [Example B169, 5-(1-(6,8-dimethyl-7-oxo-2-(tetrahydro-2H-pyran-4-yl)-7,8-dihydro-1,8-naphthyridin-4-yl)-1,2,3,4-tetrahydro-1,7-naphthyridin-6-yl)-N-(3-(4-(2,6-dioxopiperidin-3-yl)benzofuran-2-yl)prop-2-yn-1-yl)picolinamide]
- Dmax [1]: > 80%
- DC50 [1]: < 1 nM
- DC50 [2]: 1 to 9.9 nM
- Dmax [2]: 40 to 59%

Compound: CNC(=O)c1c[nH]c2ccc(-c3cccc4cc(-c5ccc(C(=O)NCC#Cc6ccc7occ(C8CCC(=O)NC8=O)c7c6)nc5)ncc34)cc12 (centres unmarked) [Example C1, 5-(3-(6-((3-(3-(2,6-dioxopiperidin-3-yl)benzofuran-5-yl)prop-2-yn-1-yl)carbamoyl)pyridin-3-yl)isoquinolin-8-yl)-N-methyl-1H-indole-3-carboxamide]
- Dmax [1]: > 80%
- DC50 [1]: 1 to 9.9 nM
- DC50 [2]: > 1000 nM
- Dmax [2]: < 20%
